Columns and labels:
Assay in all cases: NCI60 cell line screen (SRB)
Type in all cases: cell-based, human
[1] = test system: 786-0; settings: 786-0, Renal Cancer, 48 h
Protocol: (§1) This panel implements the NCI60 cell line screen, including leukemia, non-small cell lung cancer, colon cancer, central nervous system cancer, melanoma, ovarian cancer, renal cancer, prostate cancer and breast cancer. The cell lines tested are specified in Table 3.
(§2) Generally, the human tumor cell lines of the cancer screening panel are grown in RPMI 1640 medium containing 5% fetal bovine serum and 2 mM L-glutamine. For a typical screening experiment, cells are inoculated into 96 well microtiter plates in 100 μL at plating densities ranging from 5,000 to 40,000 cells/well depending on the doubling time of individual cell lines. After cell inoculation, the microtiter plates are incubated at 37° C., 5% CO2, 95% air and 100% relative humidity for 24 h prior to addition of experimental drugs. After 24 h, two plates of each cell line are fixed in situ with TCA, to represent a measurement of the cell population for each cell line at the time of drug addition (Tz). Experimental drugs are solubilized in dimethyl sulfoxide at 400-fold the desired final maximum test concentration and stored frozen prior to use. At the time of drug addition, an aliquot of frozen concentrate is thawed and diluted to twice the desired final maximum test concentration with complete medium containing 50 μg/ml gentamicin. Additional four, 10-fold or ½ log serial dilutions are made to provide a total of five drug concentrations plus control. Aliquots of 100 μl of these different drug dilutions are added to the appropriate microtiter wells already containing 100 μl of medium, resulting in the required final drug concentrations.
(§3) Following drug addition, the plates are incubated for an additional 48 h at 37° C., 5% CO2, 95% air, and 100% relative humidity. For adherent cells, the assay is terminated by the addition of cold TCA. Cells are fixed in situ by the gentle addition of 50 μl of cold 50% (w/v) TCA (final concentration, 10% TCA) and incubated for 60 minutes at 4° C. The supernatant is discarded, and the plates are washed five times with tap water and air dried. Sulforhodamine B (SRB) solution (100 μl) at 0.4% (w/v) in 1% acetic acid is added to each well, and plates are incubated for 10 minutes at room temperature. After staining, unbound dye is removed by washing five times with 1% acetic acid and the plates are air dried. Bound stain is subsequently solubilized with 10 mM trizma base, and the absorbance is read on an automated plate reader at a wavelength of 515 nm. For suspension cells, the methodology is the same except that the assay is terminated by fixing settled cells at the bottom of the wells by gently adding 50 μl of 80% TCA (final concentration, 16% TCA). Using the seven absorbance measurements (time zero, Tz, control growth, (control), and test growth in the presence of drug at the five concentration levels (Ti)), the percentage growth is calculated at each of the drug concentrations levels. Percentage growth inhibition is calculated as:
(§4) [(Ti−Tz)/(C−Tz)]×100 for concentrations for which Ti>/=Tz
(§5) [(Ti−Tz)/Tz]×100 for concentrations for which Ti<Tz.

[2] = test system: A549/ATCC; settings: Non-Small Cell Lung Cancer, 48 h
Protocol: as §1, §2, §3, §4, §5

[3] = test system: ACHN; settings: Renal Cancer, 48 h
Protocol: as §1, §2, §3, §4, §5

[4] = test system: CAKI-1; settings: CAKI-1, Renal Cancer, 48 h
Protocol: as §1, §2, §3, §4, §5

[5] = test system: COLO 205; settings: COLO 205, Colon Cancer, 48 h
Protocol: as §1, §2, §3, §4, §5

[6] = test system: HCT-15; settings: HCT-15, Colon Cancer, 48 h
Protocol: as §1, §2, §3, §4, §5

[7] = test system: HOP-62; settings: HOP-62, Non-Small Cell Lung Cancer, 48 h
Protocol: as §1, §2, §3, §4, §5

[8] = test system: HS 578T; settings: Breast Cancer, 48 h
Protocol: as §1, §2, §3, §4, §5

[9] = test system: IGROV1; settings: IGROV1, Ovarian Cancer, 48 h
Protocol: as §1, §2, §3, §4, §5

[10] = test system: M14; settings: M14, Melanoma, 48 h
Protocol: as §1, §2, §3, §4, §5

[11] = test system: NCI-H226; settings: NCI-H226, Non-Small Cell Lung Cancer, 48 h
Protocol: as §1, §2, §3, §4, §5

[12] = test system: NCI-H23; settings: NCI-H23, Non-Small Cell Lung Cancer, 48 h
Protocol: as §1, §2, §3, §4, §5

[13] = test system: NCI/ADR-RES; settings: Breast Cancer, 48 h
Protocol: as §1, §2, §3, §4, §5

[14] = test system: NCIH332M; settings: Non-Small Cell Lung Cancer, 48 h
Protocol: as §1, §2, §3, §4, §5

[15] = test system: OVCAR5; settings: OVCAR5, Ovarian Cancer, 48 h
Protocol: as §1, §2, §3, §4, §5

[16] = test system: OVCAR8; settings: OVCAR8, Ovarian Cancer, 48 h
Protocol: as §1, §2, §3, §4, §5

[17] = test system: RXF 393; settings: RXF 393, Renal Cancer; 48 h
Protocol: as §1, §2, §3, §4, §5

[18] = test system: SK-MEL-28; settings: SK-MEL-28, Melanoma, 48 h
Protocol: as §1, §2, §3, §4, §5

[19] = test system: SK-MEL-2; settings: SK-MEL-2, Melanoma, 48 h
Protocol: as §1, §2, §3, §4, §5

[20] = test system: SK-MEL-5; settings: SK-MEL-5, Melanoma, 48 h
Protocol: as §1, §2, §3, §4, §5

[21] = test system: SNB-19; settings: SNB-19, CNS Cancer, 48 h
Protocol: as §1, §2, §3, §4, §5

[22] = test system: SNB-75; settings: SNB-75, CNS Cancer, 48 h
Protocol: as §1, §2, §3, §4, §5

[23] = test system: SW-620; settings: SW-620, Colon Cancer, 48 h
Protocol: as §1, §2, §3, §4, §5

[24] = test system: T-47D; settings: Breast Cancer, 48 h
Protocol: as §1, §2, §3, §4, §5

[25] = test system: TK-10; settings: TK-10, Renal Cancer, 48 h
Protocol: as §1, §2, §3, §4, §5

[26] = test system: U251; settings: U251, CNS Cancer, 48 h
Protocol: as §1, §2, §3, §4, §5

CNC1=CC2=NCCc3c[nH]c(c32)C1=O [Compound 4a]
GI50 [1]: 10.5 µM
GI50 [2]: 2780 nM
GI50 [3]: 13.1 µM
GI50 [4]: 1950 nM
GI50 [5]: 1750 nM
GI50 [6]: 5090 nM
GI50 [7]: 1.28 µM
GI50 [8]: 10.2 µM
GI50 [9]: 2900 nM
GI50 [10]: 2570 nM
GI50 [11]: 11.1 µM
GI50 [12]: 2460 nM
GI50 [13]: 9.33 µM
GI50 [14]: 2890 nM
GI50 [15]: 17.3 µM
GI50 [16]: 3190 nM
GI50 [17]: 4.22 µM
GI50 [18]: 6.62 µM
GI50 [19]: 1.67 µM
GI50 [20]: 1450 nM
GI50 [21]: 3.43 µM
GI50 [22]: 1380 nM
GI50 [23]: 3.1 µM
GI50 [24]: 3500 nM
GI50 [25]: 15.4 µM
GI50 [26]: 4.2 µM

O=C1C(NCc2ccccc2)=CC2=NCCc3c[nH]c1c32 [Compound 4c]
GI50 [1]: 3.22 µM
GI50 [2]: 2140 nM
GI50 [3]: 2.8 µM
GI50 [4]: 298 nM
GI50 [5]: 378 nM
GI50 [6]: 1390 nM
GI50 [7]: 3.7 µM
GI50 [8]: 5.2 µM
GI50 [9]: 793 nM
GI50 [10]: 1280 nM
GI50 [11]: 5.45 µM
GI50 [12]: 1470 nM
GI50 [13]: 3.51 µM
GI50 [14]: 628 nM
GI50 [15]: 2.67 µM
GI50 [16]: 2080 nM
GI50 [17]: 2.09 µM
GI50 [18]: 7.42 µM
GI50 [19]: 5.2 µM
GI50 [20]: 462 nM
GI50 [21]: 1.96 µM
GI50 [22]: 1650 nM
GI50 [23]: 1.07 µM
GI50 [24]: 523 nM
GI50 [25]: 4.72 µM
GI50 [26]: 2.66 µM

O=C(O)C(F)(F)F.O=C1C(NCCc2ccc3c(c2)OCO3)=CC2=NCCc3c[nH]c1c32 [Compound 6]
GI50 ([1]; Homo sapiens): 3.98 µM
GI50 ([3]; Homo sapiens): 3.25 µM
GI50 ([4]; Homo sapiens): 1770 nM
GI50 ([5]; Homo sapiens): 1020 nM
GI50 ([6]; Homo sapiens): 1860 nM
GI50 ([7]; Homo sapiens): 2.5 µM
GI50 ([8]; Homo sapiens): 2.86 µM
GI50 ([9]; Homo sapiens, IGROV-1): 2520 nM
GI50 ([10]; Homo sapiens): 1430 nM
GI50 ([11]; Homo sapiens): 4.38 µM
GI50 ([12]; Homo sapiens): 1690 nM
GI50 ([13]; Homo sapiens): 1.76 µM
GI50 ([14]; Homo sapiens, NCI-H332M): 2820 nM
GI50 ([15]; Homo sapiens, OVCAR-5): 2.72 µM
GI50 ([16]; Homo sapiens, OVCAR-8): 1620 nM
GI50 ([18]; Homo sapiens): 4.91 µM
GI50 ([19]; Homo sapiens): 5.82 µM
GI50 ([20]; Homo sapiens): 965 nM
GI50 ([21]; Homo sapiens): 3.29 µM
GI50 ([22]; Homo sapiens): 3490 nM
GI50 ([23]; Homo sapiens): 3.44 µM
GI50 ([24]; Homo sapiens, T47D): 2970 nM
GI50 ([25]; Homo sapiens): 4.51 µM
GI50 ([26]; Homo sapiens, U-251): 3.05 µM

COc1ccc(CCNC2=CC3=NCCc4c[nH]c(c43)C2=O)cc1OC.O=C(O)C(F)(F)F [Compound 20]
GI50 ([1]; Homo sapiens): 5.43 µM
GI50 ([2]; Homo sapiens): 2720 nM
GI50 ([3]; Homo sapiens): 4.21 µM
GI50 ([4]; Homo sapiens): 2670 nM
GI50 ([5]; Homo sapiens): 1390 nM
GI50 ([6]; Homo sapiens): 2650 nM
GI50 ([7]; Homo sapiens): 5.17 µM
GI50 ([8]; Homo sapiens): 5.04 µM
GI50 ([9]; Homo sapiens, IGROV-1): 4240 nM
GI50 ([10]; Homo sapiens): 2260 nM
GI50 ([11]; Homo sapiens): 1.06 µM
GI50 ([12]; Homo sapiens): 2000 nM
GI50 ([13]; Homo sapiens): 12.4 µM
GI50 ([14]; Homo sapiens, NCI-H332M): 2840 nM
GI50 ([15]; Homo sapiens, OVCAR-5): 5.14 µM
GI50 ([16]; Homo sapiens, OVCAR-8): 1790 nM
GI50 ([18]; Homo sapiens): 10.1 µM
GI50 ([19]; Homo sapiens): 0.73 µM
GI50 ([20]; Homo sapiens): 1330 nM
GI50 ([21]; Homo sapiens): 3.26 µM
GI50 ([22]; Homo sapiens): 5220 nM
GI50 ([23]; Homo sapiens): 3.09 µM
GI50 ([24]; Homo sapiens, T47D): 2490 nM
GI50 ([25]; Homo sapiens): 5.1 µM
GI50 ([26]; Homo sapiens, U-251): 3.44 µM

Source: patent publication US20100144779A1, “Marine Alkalod Makaluvamines and Derivatives Thereof” (THE UAB RESEARCH FOUNDATION, priority 2007, published 2010)
